PubChem BioAssay (NCI)
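All cell lines were grown in 96-well plates and treated with compound for 48 hours. The concentration for full growth arrest is given as TGI.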

Columns and labels:
Experiment in all cases: inhibition of tumour cell growth, NCI panel, 48 h
OVCAR-8 ovarian = tested on: OVCAR-8 ovarian
SK-MEL-28 melanoma = tested on: SK-MEL-28 melanoma
SNB-75 CNS = tested on: SNB-75 CNS
SK-MEL-5 melanoma = tested on: SK-MEL-5 melanoma
T-47D breast = tested on: T-47D breast
RXF 393 renal = tested on: RXF 393 renal
NCI-H226 lung = tested on: NCI-H226 lung
UO-31 renal = tested on: UO-31 renal
KM12 colon = tested on: KM12 colon
UACC-62 melanoma = tested on: UACC-62 melanoma
786-0 renal = tested on: 786-0 renal
OVCAR-4 ovarian = tested on: OVCAR-4 ovarian
LOX IMVI melanoma = tested on: LOX IMVI melanoma
IGROV1 ovarian = tested on: IGROV1 ovarian
MCF7 breast = tested on: MCF7 breast
NCI/ADR-RES ovarian = tested on: NCI/ADR-RES ovarian
NCI-H23 lung = tested on: NCI-H23 lung
RPMI-8226 leukemia = tested on: RPMI-8226 leukemia
A549 NSCLC = tested on: A549 NSCLC
COLO 205 colon = tested on: COLO 205 colon
SF-539 CNS = tested on: SF-539 CNS
PC-3 prostate = tested on: PC-3 prostate
NCI-H522 lung = tested on: NCI-H522 lung
HCC-2998 colon = tested on: HCC-2998 colon
SW-620 colon = tested on: SW-620 colon
MDA-MB-231 breast = tested on: MDA-MB-231 breast
BT-549 breast = tested on: BT-549 breast
OVCAR-3 ovarian = tested on: OVCAR-3 ovarian
U251 CNS = tested on: U251 CNS
DU-145 prostate = tested on: DU-145 prostate
ACHN renal = tested on: ACHN renal
MOLT-4 leukemia = tested on: MOLT-4 leukemia
M14 melanoma = tested on: M14 melanoma
SK-OV-3 ovarian = tested on: SK-OV-3 ovarian
MDA-N = tested on: MDA-N
HCT-15 colon = tested on: HCT-15 colon
CCRF-CEM leukemia = tested on: CCRF-CEM leukemia
MDA-MB-435 = tested on: MDA-MB-435
NCI-H460 lung = tested on: NCI-H460 lung
SF-268 CNS = tested on: SF-268 CNS
SR leukemia = tested on: SR leukemia
SN12C renal = tested on: SN12C renal
SF-295 CNS = tested on: SF-295 CNS
K-562 leukemia = tested on: K-562 leukemia
UACC-257 melanoma = tested on: UACC-257 melanoma
HCT-116 colon = tested on: HCT-116 colon
HS 578T breast = tested on: HS 578T breast
SK-MEL-2 melanoma = tested on: SK-MEL-2 melanoma
MALME-3M melanoma = tested on: MALME-3M melanoma
HOP-92 NSCLC = tested on: HOP-92 NSCLC
SNB-19 CNS = tested on: SNB-19 CNS
CAKI-1 renal = tested on: CAKI-1 renal
EKVX NSCLC = tested on: EKVX NSCLC
HL-60(TB) leukemia = tested on: HL-60(TB) leukemia
OVCAR-5 ovarian = tested on: OVCAR-5 ovarian
A498 renal = tested on: A498 renal
HT29 colon = tested on: HT29 colon

Measured: TGI

CC(C)(C)N/N=C(\C(=O)Nc1ccc([N+](=O)[O-])cc1[N+](=O)[O-])c1nc2ccc([N+](=O)[O-])cc2[nH]c1=O
> 100 µM: all assays above
